Drawing on PubChem BioAssay (NCI), this text covers TGI for eight compounds.

Some test systems named below: MCF7 breast; PC-3 prostate; MDA-MB-435; ACHN renal; A549 NSCLC; SNB-19 CNS; SW-620 colon; NCI-H522 lung; HL-60(TB) leukemia; A498 renal; SN12C renal; SK-OV-3 ovarian; MDA-N; SF-295 CNS; BT-549 breast; SK-MEL-28 melanoma; SR leukemia.
Common to all, as to experiment: NCI tumour cell line growth inhibition, 48 h

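Tested at 5 concentrations; 48 h exposure; 96-well plates; endpoints linearly interpolated, else capped at highest concentration. TGI marks complete inhibition of growth.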 Where only a bound is given, the exact number is not on record here.

In the case of `COc1cc2c(cc1OC)C1C=NC(C2)c2cc(OC)c(OC)cc21` (stereo not given), the TGI in the test with MCF7 breast, with PC-3 prostate, in the test on MDA-MB-435, with ACHN renal, with A549 NSCLC and in the test on SNB-19 CNS was more than 100 µM throughout. The TGI with SW-620 colon, with NCI-H522 lung, in the test with HL-60(TB) leukemia, in the test on A498 renal, in the test on SN12C renal and in the test on SK-OV-3 ovarian was more than 100 µM in each case. In addition, the TGI with MDA-N, with SF-295 CNS, in the test with BT-549 breast, in the test with SK-MEL-28 melanoma and in the test on SR leukemia was more than 100 µM each time.
In the case of `C[C@]12CC[C@@H]3c4cc(OCC(F)(F)F)c(O)cc4CC[C@H]3[C@@H]1CC[C@@H]2O`, the TGI in the test on MCF7 breast is 17.3 µM; in the test on PC-3 prostate, 13.8 µM; in the test on MDA-MB-435 it was 1.1 µM; in the test on ACHN renal, 47.1 µM; in the test on A549 NSCLC, 20.6 µM; in the test on SNB-19 CNS it was 18.1 µM. In addition, the TGI is 9.03 µM with SW-620 colon; 3.88 µM in the test on NCI-H522 lung; 10.7 µM in the test on HL-60(TB) leukemia; 20.7 µM in the test on A498 renal; 15.5 µM in the test on SN12C renal; 16.8 µM with SK-OV-3 ovarian. Besides, the TGI with MDA-N was 1.29 µM; in the test with SF-295 CNS, 11.6 µM; with BT-549 breast, 89.6 µM; in the test with SK-MEL-28 melanoma it was 26.2 µM; in the test with SR leukemia it was 2.47 µM.
For `Cc1ccc(NC(Nc2ccc(C)cc2C)=C(/C=C(\Cl)[N+](=O)[O-])[N+](=O)[O-])c(C)c1`, the TGI is 12.4 µM with MCF7 breast; 17.2 µM with PC-3 prostate; 7.98 µM with MDA-MB-435; 8.26 µM in the test with ACHN renal; 35 µM with A549 NSCLC; 26 µM with SNB-19 CNS. In addition, the TGI in the test on SW-620 colon turned out to be 4.02 µM; in the test with NCI-H522 lung it was 4.52 µM; in the test with HL-60(TB) leukemia it was 2.6 µM; in the test with A498 renal, 32.4 µM; in the test with SN12C renal, 14.4 µM; in the test with SK-OV-3 ovarian, 21 µM. Also, the TGI in the test with MDA-N stood at 10.9 µM; in the test with SF-295 CNS, 31.2 µM; in the test with BT-549 breast, 11.7 µM; in the test with SK-MEL-28 melanoma, 4.77 µM; with SR leukemia it was 4.13 µM.
In the case of `O=C(O)C12C3CCC(CC3)C1(C(=O)O)C1CCC2C1` (stereo not given), the TGI in the test with MCF7 breast, in the test with PC-3 prostate, with MDA-MB-435, with ACHN renal, in the test on A549 NSCLC and in the test with SNB-19 CNS was more than 100 µM each time. The TGI with SW-620 colon, with NCI-H522 lung, in the test with HL-60(TB) leukemia, with A498 renal, in the test on SN12C renal and with SK-OV-3 ovarian was more than 100 µM in each case. The TGI in the test on MDA-N, in the test on SF-295 CNS, with BT-549 breast, in the test with SK-MEL-28 melanoma and in the test with SR leukemia was more than 100 µM in each case.
For `COc1cc(C2SCC(=O)N2c2cccc(Cl)c2)cc(OC)c1OC` (stereo not given), the TGI in the test with MCF7 breast, in the test with PC-3 prostate, in the test with MDA-MB-435, with ACHN renal, in the test on A549 NSCLC and in the test on SNB-19 CNS was more than 100 µM each time. The TGI in the test on SW-620 colon, in the test with NCI-H522 lung, with HL-60(TB) leukemia, in the test with A498 renal, in the test with SN12C renal and with SK-OV-3 ovarian was more than 100 µM throughout. The TGI in the test with MDA-N was 43 µM; in the test with SF-295 CNS, more than 100 µM; in the test on BT-549 breast, more than 100 µM; in the test with SK-MEL-28 melanoma, more than 100 µM; with SR leukemia it was more than 100 µM.
Consider `Oc1ccc(-c2cc(-c3cc(-c4ccc(O)cc4)no3)on2)cc1`, for which the TGI in the test on MCF7 breast, in the test with PC-3 prostate, with MDA-MB-435, with ACHN renal, in the test with A549 NSCLC and in the test on SNB-19 CNS was more than 100 µM throughout. In addition, the TGI in the test with SW-620 colon, with NCI-H522 lung, with HL-60(TB) leukemia, in the test on A498 renal, with SN12C renal and in the test on SK-OV-3 ovarian was more than 100 µM in each case. Further, the TGI is more than 100 µM with MDA-N; more than 100 µM in the test with SF-295 CNS; more than 100 µM with BT-549 breast; more than 100 µM in the test with SK-MEL-28 melanoma; more than 31.6 µM with SR leukemia.
In the case of `COC(=O)[C@@H]1[C@H](OC(C)=O)CCC2[C@@]3(C[C@@H](c4ccoc4)O[C@@H]3OC)[C@H](C)CC[C@]21C(=O)OC` (stereo not given in full), the TGI in the test with MCF7 breast, in the test with PC-3 prostate, with MDA-MB-435, in the test with ACHN renal, in the test with A549 NSCLC and with SNB-19 CNS was more than 25 µM in each case. Further, the TGI in the test with SW-620 colon, in the test on NCI-H522 lung, with HL-60(TB) leukemia, with A498 renal, with SN12C renal and in the test with SK-OV-3 ovarian was more than 25 µM throughout. For the same compound, the TGI in the test with MDA-N, with SF-295 CNS, in the test with BT-549 breast and in the test with SR leukemia was more than 25 µM throughout.
On to `COC(=O)[C@H](CCSC)NC(=O)N[C@H](C)c1ccccc1`, for which the TGI in the test with MCF7 breast, in the test with PC-3 prostate, with MDA-MB-435, in the test with ACHN renal, with A549 NSCLC and in the test on SNB-19 CNS was more than 100 µM in each case. In addition, the TGI in the test on SW-620 colon is more than 100 µM; in the test on NCI-H522 lung, 47.5 µM; in the test with HL-60(TB) leukemia, more than 100 µM; in the test with A498 renal, more than 100 µM; in the test on SN12C renal, more than 100 µM; in the test with SK-OV-3 ovarian it was more than 100 µM. In addition, the TGI in the test on MDA-N, in the test on SF-295 CNS, in the test with BT-549 breast, in the test on SK-MEL-28 melanoma and with SR leukemia was more than 100 µM in each case.
